From ChEMBL document CHEMBL1909046, “DrugMatrix in vitro pharmacology data”

Experiments:
[1] = target: C-C chemokine receptor type 2 (Homo sapiens, UniProt P41597); format: cell membranes, Membrane; details: cho-k1; note: in other assays of this panel Not Active means under 50% inhibition at 10 µM
[2] = target: Tyrosine-protein kinase Lck (Homo sapiens, UniProt P06239); assay: DRUGMATRIX: Protein Tyrosine Kinase, LCK enzyme inhibition (substrate: Poly(Glu:Tyr)); format: cell-based, Insect cells; details: insect cells; Not Active = under 50% inhibition at 10 µM
Sequence of Tyrosine-protein kinase Lck (P06239 whole entry): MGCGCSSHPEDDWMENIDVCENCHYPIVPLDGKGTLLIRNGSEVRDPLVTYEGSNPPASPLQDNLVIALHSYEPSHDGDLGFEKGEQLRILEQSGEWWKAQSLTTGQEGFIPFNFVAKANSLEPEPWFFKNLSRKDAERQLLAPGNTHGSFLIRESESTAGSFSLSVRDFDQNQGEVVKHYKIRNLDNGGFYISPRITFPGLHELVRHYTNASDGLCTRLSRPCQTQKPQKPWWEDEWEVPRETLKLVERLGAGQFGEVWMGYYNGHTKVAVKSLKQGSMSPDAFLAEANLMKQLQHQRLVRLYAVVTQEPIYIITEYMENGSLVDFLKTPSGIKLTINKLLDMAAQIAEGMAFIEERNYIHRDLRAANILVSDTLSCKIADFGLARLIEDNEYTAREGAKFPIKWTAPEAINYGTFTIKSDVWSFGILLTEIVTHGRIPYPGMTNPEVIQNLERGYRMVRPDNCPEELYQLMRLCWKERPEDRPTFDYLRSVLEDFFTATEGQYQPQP

[3] = DRUGMATRIX: Imidazoline I2, Central radioligand binding (ligand: [3H] Idazoxan); format: cell membranes, Rattus norvegicus, Wistar, Cerebral cortex, Membrane; details: Not Active = under 50% inhibition at 10 µM
[4] = target: T1, Adenosine receptor A1 (Homo sapiens, UniProt P30542); format: cell membranes, CHO, Membrane; details: cho;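 note: radioligand binding assay at the adenosine A1 receptor, with DPCPX serving as the labelled ligand; in other assays of this panel Not Active means under 50% inhibition at 10 µM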
T1 sequence (P30542 whole entry): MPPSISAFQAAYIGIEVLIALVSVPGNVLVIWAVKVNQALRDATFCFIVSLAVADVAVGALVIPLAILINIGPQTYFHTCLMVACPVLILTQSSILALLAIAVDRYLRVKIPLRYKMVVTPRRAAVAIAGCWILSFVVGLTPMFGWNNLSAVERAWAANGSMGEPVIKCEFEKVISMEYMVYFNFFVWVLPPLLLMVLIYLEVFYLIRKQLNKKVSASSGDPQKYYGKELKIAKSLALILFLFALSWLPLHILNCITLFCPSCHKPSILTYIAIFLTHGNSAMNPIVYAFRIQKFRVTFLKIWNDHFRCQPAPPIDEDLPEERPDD

[5] = DRUGMATRIX: Calcium Channel Type L, Benzothiazepine radioligand binding (ligand: [3H] Diltiazem); format: cell membranes, Rattus norvegicus, Wistar, Brain, Membrane; details: Not Active = under 50% inhibition at 10 µM
[6] = target: Melanocortin receptor 3 (Homo sapiens, UniProt P41968); format: cell membranes, HEK293, Membrane; details: hek293; note: in other assays of this panel Not Active means under 50% inhibition at 10 µM
Sequence of Melanocortin receptor 3 (P41968 whole entry): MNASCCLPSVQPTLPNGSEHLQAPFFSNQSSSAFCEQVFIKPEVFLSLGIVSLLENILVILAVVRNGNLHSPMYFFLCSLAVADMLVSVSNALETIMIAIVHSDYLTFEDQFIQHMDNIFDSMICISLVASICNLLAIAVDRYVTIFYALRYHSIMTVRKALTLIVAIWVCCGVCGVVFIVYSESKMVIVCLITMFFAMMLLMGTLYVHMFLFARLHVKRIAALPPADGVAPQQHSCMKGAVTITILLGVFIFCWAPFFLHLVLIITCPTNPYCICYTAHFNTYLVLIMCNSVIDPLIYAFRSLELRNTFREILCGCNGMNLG

Sequence of C-C chemokine receptor type 2 (P41597 whole entry): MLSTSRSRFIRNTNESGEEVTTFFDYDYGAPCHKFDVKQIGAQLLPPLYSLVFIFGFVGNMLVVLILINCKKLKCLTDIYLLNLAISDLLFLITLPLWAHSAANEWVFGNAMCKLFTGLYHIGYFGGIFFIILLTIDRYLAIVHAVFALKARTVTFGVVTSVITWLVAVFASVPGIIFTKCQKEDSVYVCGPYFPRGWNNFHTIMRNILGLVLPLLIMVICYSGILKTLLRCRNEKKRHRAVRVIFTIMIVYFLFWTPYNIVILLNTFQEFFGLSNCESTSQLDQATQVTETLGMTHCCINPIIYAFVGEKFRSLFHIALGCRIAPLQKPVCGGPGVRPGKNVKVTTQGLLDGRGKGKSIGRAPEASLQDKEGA

Compound | IC50 [1] | IC50 [2] | IC50 ([3]; read-out: IC50) [nM] | Ki ([3]; read-out: Ki) [nM] | IC50 [4] | IC50 [5] | Ki [5] | IC50 [6] | IC50 [3] | Ki [3]
CO[C@@H]1[C@@H](OC)[C@H](C)[C@@](O)(CC(=O)O)O[C@H]1[C@H](C)[C@H]1O[C@@]2(CC[C@@](C)([C@H]3CC[C@@](C)([C@@H]4O[C@@H]([C@H]5O[C@](C)(O)[C@H](C)C[C@@H]5C)C[C@@H]4O[C@@H]4C[C@H](OC)[C@@H](OC)[C@H](C)O4)O3)O2)C[C@H](O)[C@H]1C [MADURAMICIN ACID] | Not Active | Not Active | 607 | 405 | Not Active | Not Active | Not Active | Not Active |  | 
CC(C)Cc1ccc([C@@H](C)C(=O)O)cc1 [(R)-IBUPROPHEN] | Not Active | Not Active |  |  | Not Active | Not Active | Not Active | Not Active | Not Active | Not Active
NC(=O)N1C(=O)/C(=C(\O)c2cccs2)c2cc(Cl)ccc21 [TENIDAP] | Not Active | Not Active |  |  | Not Active | Not Active | Not Active | Not Active | Not Active | Not Active
O=C1C(CC[S+]([O-])c2ccccc2)C(=O)N(c2ccccc2)N1c1ccccc1 (configuration not stated) [SULFINPYRAZONE] | Not Active | Not Active |  |  | Not Active | Not Active | Not Active | Not Active | Not Active | Not Active
CO[C@H]1/C=C/O[C@@]2(C)Oc3c(C)c(O)c4c(O)c(c(/C=N/N5CCN(C6CCCC6)CC5)c(O)c4c3C2=O)NC(=O)/C(C)=C\C=C\[C@H](C)[C@H](O)[C@@H](C)[C@@H](O)[C@@H](C)[C@H](OC(C)=O)[C@@H]1C [RIFAPENTINE] | Not Active | Not Active |  |  | Not Active | Not Active | Not Active | Not Active | Not Active | Not Active
CCCCOc1cc(CC2CNC(=O)N2)ccc1OC (configuration not stated) [RO-201724] | Not Active | Not Active |  |  | Not Active | Not Active | Not Active | Not Active | Not Active | Not Active
N#Cc1ccc(C(c2ccc(C#N)cc2)n2cncn2)cc1 [LETROZOLE] | Not Active | Not Active |  |  | Not Active | Not Active | Not Active | Not Active | Not Active | Not Active
CN(C/C=C/C#CC(C)(C)C)Cc1cccc2ccccc12 [TERBINAFINE] | Not Active | Not Active |  |  | Not Active | Not Active | Not Active | Not Active | Not Active | Not Active
O=C1Nc2ccc(Cl)cc2C(c2ccccc2Cl)=NC1O (configuration not stated) [LORAZEPAM] | Not Active | Not Active |  |  | Not Active | Not Active | Not Active | Not Active | Not Active | Not Active
